Data reported in US20250262279A1, “DOSE REGIMEN FOR LONG-ACTING GLP1/GLUCAGON RECEPTOR AGONISTS” (Boehringer Ingelheim International GmbH, priority 2021, published 2025).
Read-outs that look alike come from different tables or passages of the source.

Assay: Example 1: plasma pharmacokinetics
Assay type: in vivo
Settings: human, sc; for Cmax: read-out: Cmax (gMean)

Compound CC[C@H](C)[C@H](NC(=O)[C@H](Cc1ccccc1)NC(=O)[C@H](CC(=O)O)NC(=O)[C@H](CCCCN)NC(=O)[C@H](C)NC(=O)[C@H](C)NC(=O)[C@H](CCCNC(=N)N)NC(=O)[C@H](CCC(=O)O)NC(=O)[C@H](CC(=O)O)NC(=O)[C@H](CC(C)C)NC(=O)[C@H](Cc1ccc(O)cc1)NC(=O)[C@H](CCCCN)NC(=O)[C@H](CO)NC(=O)[C@H](Cc1ccc(O)cc1)NC(=O)[C@H](CC(=O)O)NC(=O)[C@H](CO)NC(=O)[C@@H](NC(=O)[C@H](Cc1ccccc1)NC(=O)[C@@H](NC(=O)CNC(=O)[C@H](CCC(N)=O)NC(=O)C1(NC(=O)[C@@H](N)Cc2c[nH]cn2)CCC1)[C@@H](C)O)[C@@H](C)O)C(=O)N[C@@H](CCCCNC(=O)CNC(=O)CNC(=O)[C@H](CO)NC(=O)CNC(=O)[C@H](CO)NC(=O)CNC(=O)CC[C@H](NC(=O)CCCCCCCCCCCCCCCCC(=O)O)C(=O)O)C(=O)N[C@@H](Cc1c[nH]c2ccccc12)C(=O)N[C@@H](CC(C)C)C(=O)N[C@@H](CCC(=O)O)C(=O)N[C@@H](CO)C(=O)N[C@@H](C)C(N)=O [Compound I] has an AUC(0-t) (0.3 mg, Ex.1 twice weekly scheme, wk 1, 0.3 mg sc, read-out: AUC0-72 (gMean)) of 0.342 µM·h, a Cmax (0.3 mg, Ex.1 twice weekly scheme, wk 1, 0.3 mg sc) of 0.00538 µM and an AUC(0-t) (0.3 mg, Ex.1 weekly scheme 1, wk 1, 0.3 mg sc, read-out: AUC0-168 (gMean)) of 0.617 µM·h. The Cmax (0.3 mg, Ex.1 weekly scheme 1, wk 1, 0.3 mg sc) was 0.00508 µM, the AUC(0-t) (0.4 mg, Ex.1 weekly scheme 2, wk 1, 0.4 mg sc, read-out: AUC0-168 (gMean)) was 0.818 µM·h and the Cmax (0.4 mg, Ex.1 weekly scheme 2, wk 1, 0.4 mg sc) was 0.00651 µM. It also gave an AUC(0-t) (0.6 mg, Ex.1 twice weekly scheme, wk 3, 0.6 mg sc, read-out: AUC0-72 (gMean)) of 1.2 µM·h, a Cmax (0.6 mg, Ex.1 twice weekly scheme, wk 3, 0.6 mg sc) of 0.0204 µM and an AUC(0-t) (0.6 mg, Ex.1 weekly scheme 1, wk 2, 0.6 mg sc, read-out: AUC0-168 (gMean)) of 1.41 µM·h. It also gave a Cmax (0.6 mg, Ex.1 weekly scheme 1, wk 2, 0.6 mg sc) of 0.0123 µM, an AUC(0-t) (0.6 mg, Ex.1 weekly scheme 3, wk 1, 0.6 mg sc, read-out: AUC0-168 (gMean)) of 1.24 µM·h and a Cmax (0.6 mg, Ex.1 weekly scheme 3, wk 1, 0.6 mg sc) of 0.0107 µM. It also gave an AUC(0-t) (0.6 mg, Ex.1 weekly scheme 3, wk 2, 0.6 mg sc, read-out: AUC0-168 (gMean)) of 1.71 µM·h, a Cmax (0.6 mg, Ex.1 weekly scheme 3, wk 2, 0.6 mg sc) of 0.0144 µM and an AUC(0-t) (0.6 mg, Ex.1 weekly scheme 4, wk 1, 0.6 mg sc, read-out: AUC0-168 (gMean)) of 1.57 µM·h. For the same compound, the Cmax (0.6 mg, Ex.1 weekly scheme 4, wk 1, 0.6 mg sc) was 0.0157 µM, the AUC(0-t) (0.6 mg, Ex.1 weekly scheme 4, wk 3, 0.6 mg sc, read-out: AUC0-168 (gMean)) was 2.49 µM·h and the Cmax (0.6 mg, Ex.1 weekly scheme 4, wk 3, 0.6 mg sc) was 0.0223 µM. It also gave an AUC(0-t) (0.6 mg, Ex.1 weekly scheme 5, wk 1, 0.6 mg sc, read-out: AUC0-168 (gMean)) of 1.44 µM·h, a Cmax (0.6 mg, Ex.1 weekly scheme 5, wk 1, 0.6 mg sc) of 0.0132 µM and an AUC(0-t) (0.8 mg, Ex.1 weekly scheme 2, wk 2, 0.8 mg sc, read-out: AUC0-168 (gMean)) of 2.04 µM·h. For the same compound, the Cmax (0.8 mg, Ex.1 weekly scheme 2, wk 2, 0.8 mg sc) was 0.0169 µM, the AUC(0-t) (0.9 mg, Ex.1 twice weekly scheme, wk 5, 0.9 mg sc, read-out: AUC0-72 (gMean)) was 2.39 µM·h and the Cmax (0.9 mg, Ex.1 twice weekly scheme, wk 5, 0.9 mg sc) was 0.0408 µM. The AUC(0-t) (0.9 mg, Ex.1 twice weekly scheme, wk 6, 0.9 mg sc, read-out: AUC0-72 (gMean)) was 2.78 µM·h, the Cmax (0.9 mg, Ex.1 twice weekly scheme, wk 6, 0.9 mg sc) was 0.0492 µM and the AUC(0-t) (0.9 mg, Ex.1 weekly scheme 1, wk 3, 0.9 mg sc, read-out: AUC0-168 (gMean)) was 2.48 µM·h. The Cmax (0.9 mg, Ex.1 weekly scheme 1, wk 3, 0.9 mg sc) was 0.0206 µM, the AUC(0-t) (1.2 mg, Ex.1 twice weekly scheme, wk 7, 1.2 mg sc, read-out: AUC0-72 (gMean)) was 3.56 µM·h and the Cmax (1.2 mg, Ex.1 twice weekly scheme, wk 7, 1.2 mg sc) was 0.0588 µM. It also gave an AUC(0-t) (1.2 mg, Ex.1 weekly scheme 1, wk 4, 1.2 mg sc, read-out: AUC0-168 (gMean)) of 3.36 µM·h, a Cmax (1.2 mg, Ex.1 weekly scheme 1, wk 4, 1.2 mg sc) of 0.0281 µM and an AUC(0-t) (1.2 mg, Ex.1 weekly scheme 2, wk 3, 1.2 mg sc, read-out: AUC0-168 (gMean)) of 3.56 µM·h. It also gave a Cmax (1.2 mg, Ex.1 weekly scheme 2, wk 3, 1.2 mg sc) of 0.0317 µM, an AUC(0-t) (1.2 mg, Ex.1 weekly scheme 3, wk 3, 1.2 mg sc, read-out: AUC0-168 (gMean)) of 3.23 µM·h and a Cmax (1.2 mg, Ex.1 weekly scheme 3, wk 3, 1.2 mg sc) of 0.0281 µM. For the same compound, the AUC(0-t) (1.2 mg, Ex.1 weekly scheme 4, wk 5, 1.2 mg sc, read-out: AUC0-168 (gMean)) was 3.94 µM·h, the Cmax (1.2 mg, Ex.1 weekly scheme 4, wk 5, 1.2 mg sc) was 0.036 µM and the AUC(0-t) (1.2 mg, Ex.1 weekly scheme 4, wk 6, 1.2 mg sc, read-out: AUC0-168 (gMean)) was 4.7 µM·h. The Cmax (1.2 mg, Ex.1 weekly scheme 4, wk 6, 1.2 mg sc) was 0.0419 µM, the AUC(0-t) (1.2 mg, Ex.1 weekly scheme 4, wk 7, 1.2 mg sc, read-out: AUC0-168 (gMean)) was 5.19 µM·h and the Cmax (1.2 mg, Ex.1 weekly scheme 4, wk 7, 1.2 mg sc) was 0.049 µM. It also gave an AUC(0-t) (1.2 mg, Ex.1 weekly scheme 5, wk 3, 1.2 mg sc, read-out: AUC0-168 (gMean)) of 3.79 µM·h, a Cmax (1.2 mg, Ex.1 weekly scheme 5, wk 3, 1.2 mg sc) of 0.0315 µM and an AUC(0-t) (1.5 mg, Ex.1 twice weekly scheme, wk 9, 1.5 mg sc, read-out: AUC0-72 (gMean)) of 5 µM·h. The Cmax (1.5 mg, Ex.1 twice weekly scheme, wk 9, 1.5 mg sc) was 0.0783 µM, the AUC(0-t) (1.5 mg, Ex.1 weekly scheme 1, wk 5, 1.5 mg sc, read-out: AUC0-168 (gMean)) was 4.49 µM·h and the Cmax (1.5 mg, Ex.1 weekly scheme 1, wk 5, 1.5 mg sc) was 0.0378 µM. It also gave an AUC(0-t) (1.6 mg, Ex.1 weekly scheme 2, wk 4, 1.6 mg sc, read-out: AUC0-168 (gMean)) of 5.13 µM·h, a Cmax (1.6 mg, Ex.1 weekly scheme 2, wk 4, 1.6 mg sc) of 0.0443 µM and an AUC(0-t) (1.8 mg, Ex.1 twice weekly scheme, wk 11, 1.8 mg sc, read-out: AUC0-72 (gMean)) of 5.69 µM·h. For the same compound, the Cmax (1.8 mg, Ex.1 twice weekly scheme, wk 11, 1.8 mg sc) was 0.0936 µM, the AUC(0-t) (1.8 mg, Ex.1 weekly scheme 1, wk 6, 1.8 mg sc, read-out: AUC0-168 (gMean)) was 5.53 µM·h and the Cmax (1.8 mg, Ex.1 weekly scheme 1, wk 6, 1.8 mg sc) was 0.0455 µM. For the same compound, the AUC(0-t) (1.8 mg, Ex.1 weekly scheme 3, wk 4, 1.8 mg sc, read-out: AUC0-168 (gMean)) was 5.2 µM·h, the Cmax (1.8 mg, Ex.1 weekly scheme 3, wk 4, 1.8 mg sc) was 0.0465 µM and the AUC(0-t) (1.8 mg, Ex.1 weekly scheme 4, wk 11, 1.8 mg sc, read-out: AUC0-168 (gMean)) was 8.16 µM·h. For the same compound, the Cmax (1.8 mg, Ex.1 weekly scheme 4, wk 11, 1.8 mg sc) was 0.0699 µM, the AUC(0-t) (1.8 mg, Ex.1 weekly scheme 4, wk 19, 1.8 mg sc, read-out: AUC0-168 (gMean)) was 6.66 µM·h and the Cmax (1.8 mg, Ex.1 weekly scheme 4, wk 19, 1.8 mg sc) was 0.0602 µM. For the same compound, the AUC(0-t) (1.8 mg, Ex.1 weekly scheme 5, wk 5, 1.8 mg sc, read-out: AUC0-168 (gMean)) was 6.08 µM·h.
